# Laboratory results from the NIST ThermoML archive (doi:10.1016/j.jct.2009.04.005).
# Numbers after ± are expanded uncertainties.
# Settings: 298.15 K, Liquid; for vapor or sublimation pressure: Closed cell (Static) method; for mass density: Vibrating tube method
vapor or sublimation pressure [kPa],mass density [kg/m3],SMILES
0.91 ± 0.012,805.802 ± 0.15,CCCCO [butan-1-ol]
2.34 ± 0.02,802.451 ± 0.31,CCC(C)O (stereo not drawn) [butan-2-ol]
20.22 ± 0.05,654.96 ± 0.33,CCCCCC [hexane]

SMILES,vapor or sublimation pressure [kPa],mass density [kg/m3]
CCCCCl [1-chlorobutane],13.52 ± 0.034,880.805 ± 0.3
